# Measured values taken from paper PMC4921870, “The insect repellent N,N-diethyl-m-toluamide (DEET) induces angiogenesis via allosteric modulation of the M3 muscarinic receptor in endothelial cells” (Scientific Reports, 2016).
# Target: T1, M3 muscarinic receptor (Homo sapiens, UniProt P20309)
# T1 construct: gene CHRM3; recombinant M3 receptor expressed in HEK-293 cells (HEK-293/M3)
# Assay: leftward shift of carbachol Ca2+ response in HEK-293/M3 cells (fluo-4); [3H]-4-DAMP not displaced
# Assay type: cell-based
# T1 sequence (P20309 whole entry): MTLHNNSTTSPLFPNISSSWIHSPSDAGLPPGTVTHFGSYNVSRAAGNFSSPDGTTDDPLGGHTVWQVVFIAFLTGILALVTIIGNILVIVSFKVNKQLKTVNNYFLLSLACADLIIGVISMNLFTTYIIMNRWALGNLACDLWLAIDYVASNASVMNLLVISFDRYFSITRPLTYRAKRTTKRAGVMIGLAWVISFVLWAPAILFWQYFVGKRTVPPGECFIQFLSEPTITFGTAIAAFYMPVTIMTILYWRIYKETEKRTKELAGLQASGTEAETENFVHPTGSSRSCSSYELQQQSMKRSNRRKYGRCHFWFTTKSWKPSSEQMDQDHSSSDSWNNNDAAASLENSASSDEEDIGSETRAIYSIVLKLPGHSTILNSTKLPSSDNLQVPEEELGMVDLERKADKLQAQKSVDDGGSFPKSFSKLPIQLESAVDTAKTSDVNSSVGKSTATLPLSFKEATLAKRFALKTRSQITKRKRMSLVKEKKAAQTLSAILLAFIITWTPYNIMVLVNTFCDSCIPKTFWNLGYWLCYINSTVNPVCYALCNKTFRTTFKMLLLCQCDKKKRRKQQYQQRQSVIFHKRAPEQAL
smiles,measurement,value
"CCN(CC)C(=O)c1cccc(C)c1 [DEET, N,N-diethyl-meta-toluamide]",leftward shift of carbachol Ca2+ response in HEK-293/M3 cells (fluo-4); [3H]-4-D,"Whatever the concentration of DEET used, it was able to induce a leftward shift of the calcium response induced by carbachol"
